{"source": "paper PMC7792585", "about": "“Trospium Chloride Transport by Mouse Drug Carriers of the Slc22 and Slc47 Families” (International Journal of Molecular Sciences, 2020)", "key": {"[1]": {"biological_target": "T1, mMate2 (Mus musculus, UniProt Q3V050)", "T1 construct": "gene Slc47a2; full open reading frame", "T1 sequence (Q3V050 1-573)": "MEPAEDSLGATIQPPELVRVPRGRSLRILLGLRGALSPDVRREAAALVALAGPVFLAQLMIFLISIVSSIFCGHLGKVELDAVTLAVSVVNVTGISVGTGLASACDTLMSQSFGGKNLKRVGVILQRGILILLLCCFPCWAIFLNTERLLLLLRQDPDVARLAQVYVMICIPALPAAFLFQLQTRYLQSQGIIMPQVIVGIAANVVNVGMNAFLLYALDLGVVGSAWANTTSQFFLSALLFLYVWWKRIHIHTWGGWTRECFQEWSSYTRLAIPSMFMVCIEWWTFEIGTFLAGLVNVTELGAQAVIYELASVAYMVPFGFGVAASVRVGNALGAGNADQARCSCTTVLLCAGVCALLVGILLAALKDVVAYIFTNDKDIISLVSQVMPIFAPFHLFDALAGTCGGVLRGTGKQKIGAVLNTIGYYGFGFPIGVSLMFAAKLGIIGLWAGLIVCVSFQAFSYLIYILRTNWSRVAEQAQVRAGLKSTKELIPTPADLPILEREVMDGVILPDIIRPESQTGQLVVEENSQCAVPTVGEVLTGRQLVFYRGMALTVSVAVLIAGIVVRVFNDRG", "assay": "inhibition of [3H]MPP+ uptake in mMate2-HEK293 cells at […]", "assay_type": "cell-based"}, "[2]": {"substrate": "C[n+]1ccc(-c2ccccc2)cc1", "assay": "cells, lysate or membranes"}, "[3]": {"substrate": "O=C(O[C@H]1C[C@H]2CC[C@@H](C1)[N+]21CCCC1)C(O)(c1ccccc1)c1ccccc1", "assay": "[3H]trospium uptake in stably transfected HEK293 cells, Michaelis-Menten (Km)", "assay_type": "cell-based, Mus musculus"}}}
{"molecule": "Nc1nc2c(ncn2COCCO)c(=O)[nH]1", "note": "[acyclovir]", "values": [{"measurement": "inhibition of [3H]MPP+ uptake in mMate2-HEK293 cells at 10 and 100 μM", "setting": "[1]", "result": "mMate2 was significantly inhibited by tetraethylammonium (TEA), topotecan, acyclovir, and levofloxacin"}]}
{"molecule": "C[C@H]1COc2c(N3CCN(C)CC3)c(F)cc3c(=O)c(C(=O)O)cn1c23", "note": "[levofloxacin]", "values": [{"measurement": "inhibition of [3H]MPP+ uptake in mMate2-HEK293 cells at 10 and 100 μM", "setting": "[1]", "result": "mMate2 was significantly inhibited by tetraethylammonium (TEA), topotecan, acyclovir, and levofloxacin"}]}
{"molecule": "CC[N+](CC)(CC)CC", "note": "[tetraethylammonium]", "values": [{"measurement": "inhibition of [3H]MPP+ uptake in mMate2-HEK293 cells at 10 and 100 μM", "setting": "[1]", "result": "mMate2 was significantly inhibited by tetraethylammonium (TEA), topotecan, acyclovir, and levofloxacin"}]}
{"molecule": "CC[C@@]1(O)C(=O)OCc2c1cc1n(c2=O)Cc2cc3c(CN(C)C)c(O)ccc3nc2-1", "note": "[topotecan]", "values": [{"measurement": "inhibition of [3H]MPP+ uptake in mMate2-HEK293 cells at 10 and 100 μM", "setting": "[1]", "result": "mMate2 was significantly inhibited by tetraethylammonium (TEA), topotecan, acyclovir, and levofloxacin"}]}
{"molecule": "mMate2 (Mus musculus) (protein) MEPAEDSLGATIQPPELVRVPRGRSLRILLGLRGALSPDVRREAAALVALAGPVFLAQLMIFLISIVSSIFCGHLGKVELDAVTLAVSVVNVTGISVGTGLASACDTLMSQSFGGKNLKRVGVILQRGILILLLCCFPCWAIFLNTERLLLLLRQDPDVARLAQVYVMICIPALPAAFLFQLQTRYLQSQGIIMPQVIVGIAANVVNVGMNAFLLYALDLGVVGSAWANTTSQFFLSALLFLYVWWKRIHIHTWGGWTRECFQEWSSYTRLAIPSMFMVCIEWWTFEIGTFLAGLVNVTELGAQAVIYELASVAYMVPFGFGVAASVRVGNALGAGNADQARCSCTTVLLCAGVCALLVGILLAALKDVVAYIFTNDKDIISLVSQVMPIFAPFHLFDALAGTCGGVLRGTGKQKIGAVLNTIGYYGFGFPIGVSLMFAAKLGIIGLWAGLIVCVSFQAFSYLIYILRTNWSRVAEQAQVRAGLKSTKELIPTPADLPILEREVMDGVILPDIIRPESQTGQLVVEENSQCAVPTVGEVLTGRQLVFYRGMALTVSVAVLIAGIVVRVFNDRG", "values": [{"measurement": "Km", "setting": "[2]", "result": "60.0 ± 5.6", "unit": "µM"}]}
{"molecule": "mMate1 (Mus musculus) (protein, full open reading frame) MERTEESAPGPGGADAASERRGLRCLLLPGFLEELRALLVLAGPAFLAQLMMFLISFISSVFCGHLGKLELDAVTLAIAVINVTGISVGHGLSSACDTLISQTYGSQNLKHVGVILQRGTLILLLCCFPCWALFINTEQILLLFRQDPDVSRLTQTYVMIFIPALPAAFLYTLQVKYLLNQGIVLPQIMTGIAANLVNALANYVFLYHLHLGVMGSALANTISQFALAIFLFLYILWRRLHQATWGGWSWECLQDWASFLRLAIPSMLMLCIEWWAYEVGSFLSGILGMVELGAQSITYELAIIVYMIPSGFSVAANVRVGNALGAGNIDQAKKSSAISLIVTELFAVTFCVLLLGCKDLVGYIFTTDRDIVALVAQVIPIYAVSHLFEGLACTCGGILRGTGNQKVGAIVNAIGYYVIGLPIGIALMFAAKLGVIGLWSGIIICTTCQTTCFLAFIARLNWKRACQQAQVHANLKVNVALNSAVSHEPAHPVCPESHGEIMMTDLEKKDETQLDQPMNQQQALPIRPKDSNKLSGKQLALRRGLLLLGVVLVLVGGILVRVYIRIE", "values": [{"measurement": "Km", "setting": "[3]", "result": "29.3 ± 6.7", "unit": "µM"}]}
{"molecule": "mOct1 (Mus musculus) (protein, full open reading frame) MPTVDDVLEHVGEFGWFQKQAFLLLCLISASLAPIYVGIVFLGFTPDHHCRSPGVAELSQRCGWSPAEELNYTVPGLGSAGEASFLSQCMKYEVDWNQSTLDCVDPLSSLAANRSHLPLSPCEHGWVYDTPGSSIVTEFNLVCGDAWKVDLFQSCVNLGFFLGSLVVGYIADRFGRKLCLLVTTLVTSLSGVLTAVAPDYTSMLLFRLLQGMVSKGSWVSGYTLITEFVGSGYRRTTAILYQVAFTVGLVGLAGVAYAIPDWRWLQLAVSLPTFLFLLYYWFVPESPRWLLSQKRTTQAVRIMEQIAQKNRKVPPADLKMMCLEEDASERRSPSFADLFRTPSLRKHTLILMYLWFSCAVLYQGLIMHVGATGANLYLDFFYSSLVEFPAAFIILVTIDRIGRIYPIAASNLVAGAACLLMIFIPHELHWLNVTLACLGRMGATIVLQMVCLVNAELYPTFIRNLGMMVCSALCDLGGIFTPFMVFRLMEVWQALPLILFGVLGLSAGAVTLLLPETKGVALPETIEEAENLGRRKSKAKENTIYLQVQTGKSPHT", "values": [{"measurement": "Km", "setting": "[3]", "result": "58.7 ± 15.5", "unit": "µM"}]}
{"molecule": "mOct2 (Mus musculus) (protein, full open reading frame) MPTVDDILEHIGEFHLFQKQTFFLLALLSGAFTPIYVGIVFLGFTPNHHCRSPGVAELSQRCGWSPAEELNYTVPGLGSAGEVSFLSQCMRYEVDWNQSTLDCVDPLSSLAANRSHLPLSPCEHGWVYDTPGSSIVTEFNLVCAHSWMLDLFQSLVNVGFFIGAVGIGYLADRFGRKFCLLVTILINAISGVLMAISPNYAWMLVFRFLQGLVSKAGWLIGYILITEFVGLGYRRTVGICYQIAFTVGLLILAGVAYALPNWRWLQFAVTLPNFCFLLYFWCIPESPRWLISQNKNAKAMKIIKHIAKKNGKSVPVSLQSLTADEDTGMKLNPSFLDLVRTPQIRKHTLILMYNWFTSSVLYQGLIMHMGLAGDNIYLDFFYSALVEFPAAFIIILTIDRIGRRYPWAVSNMVAGAACLASVFIPDDLQWLKITVACLGRMGITIAYEMVCLVNAELYPTYIRNLAVLVCSSMCDIGGIVTPFLVYRLTDIWLEFPLVVFAVVGLVAGGLVLLLPETKGKALPETIEDAEKMQRPRKKKEKRIYLQVKKAELS", "values": [{"measurement": "Km", "setting": "[3]", "result": "78.5 ± 25.9", "unit": "µM"}]}
